Measurements: US20260355165A1, “2,3,4,9-TETRAHYDRO-1H-PYRIDO[3,4-B]INDOLE DERIVATIVES AS ESTROGEN RECEPTOR MODULATORS FOR THE TREATMENT OF CANCER” (Olema Pharmaceuticals, Inc., priority 2022, published 2026)

Biological target: T1, estrogen receptor (Homo sapiens, UniProt P03372)
T1 construct: endogenous in cells; host or cells: ECC-1 cells
T1 sequence (P03372 1-595): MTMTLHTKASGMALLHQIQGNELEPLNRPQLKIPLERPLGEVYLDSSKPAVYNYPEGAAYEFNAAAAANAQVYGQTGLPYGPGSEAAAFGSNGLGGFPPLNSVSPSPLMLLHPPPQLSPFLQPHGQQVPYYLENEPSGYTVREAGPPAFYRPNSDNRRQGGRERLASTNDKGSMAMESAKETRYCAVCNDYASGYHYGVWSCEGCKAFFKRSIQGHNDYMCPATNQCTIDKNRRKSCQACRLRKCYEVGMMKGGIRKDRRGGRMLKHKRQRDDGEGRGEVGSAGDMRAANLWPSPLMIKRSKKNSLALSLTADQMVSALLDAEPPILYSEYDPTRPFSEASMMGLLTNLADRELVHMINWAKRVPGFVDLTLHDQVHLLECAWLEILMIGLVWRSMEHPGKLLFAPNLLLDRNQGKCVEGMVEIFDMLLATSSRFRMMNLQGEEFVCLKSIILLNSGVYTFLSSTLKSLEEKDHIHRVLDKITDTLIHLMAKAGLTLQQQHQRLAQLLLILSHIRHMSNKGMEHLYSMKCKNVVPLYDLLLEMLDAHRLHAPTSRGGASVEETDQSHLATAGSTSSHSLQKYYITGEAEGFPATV
Experiment: AP assay (alkaline phosphatase activity in ECC-1 cells), agonist mode (absence of E2) and antagonist mode (presence of 500 pM E2)
Type: cell-based
Conditions: 3 days, AP activity normalized to 500 pM E2 alone, agonist and antagonist mode combined
Procedure: ECC-1 cells were trypsinized and resuspended in hormone-depleted media and plated at a density of 15 k cells per well into a 96-well plate for at least 4 hours. Cells were treated with test compounds in the absence of E2 (for agonist mode) or in the presence of 500 pM E2 (for antagonist mode) for 3 days and plates were subsequently frozen at −80 °C. Thawed plates were incubated with a chromogenic substrate of AP, p-nitrophenyl phosphate (Thermo Fisher Scientific), for 40 minutes at 42 °C, and absorbances were read at 405 nm. AP activity was normalized to the activity of 500 pM E2 alone.
The compound numbers correspond to the compound numbers of Table 1 and 2. Compounds having an activity designated as “+” provided estrogen receptor agonism having (i) at least 80% increase in the E2-normalized signal in the AP assay (agonist mode) and (ii) no more than 80% reduction in the E2-normalized signal in the AP assay (antagonist mode). Compounds having an activity designated as “++” provided estrogen receptor antagonism having (i) between 10% and 80% increase in the E2-normalized signal in the AP assay (agonist mode) and (ii) between 10% and 80% reduction in the E2-normalized signal in the AP assay (antagonist mode).

Row | SMILES | Activity (estrogen receptor modulation, e.g., agonism and antagonism)
1 | C[C@@H]1Cc2c([nH]c3ccccc23)[C@@H](c2c[nH]c3ncc(CN4CC(CF)C4)cc23)N1CC(C)(C)F [Compound I-60, (1R,3R)-1-[5-[[3-(fluoromethyl)azetidin-1-yl]methyl]-1H-pyrrolo[2,3-b]pyridin-3-yl]-2-(2-fluoro-2-methyl-propyl)-3-methyl-1,3,4,9-tetrahydropyrido[3,4-b]indole] | + (estrogen receptor agonism having (i) at least 80% increase in the E2-normalized signal in the AP assay (agonist mode) and (ii) no more than 80% reduction in the E2-normalized signal in the AP assay (antagonist mode))
2 | C[C@@H]1Cc2c([nH]c3ccccc23)[C@@H](c2ccc3[nH]c(CN4CC5(CC(F)C5)C4)cc3c2)N1CC(C)(C)F [Compound I-87, (1R,3R)-1-(2-((6-fluoro-2-azaspiro[3.3]heptan-2-yl)methyl)-1H-indol-5-yl)-2-(2-fluoro-2-methylpropyl)-3-methyl-2,3,4,9-tetrahydro-1H-pyrido[3,4-b]indole] | + (estrogen receptor agonism having (i) at least 80% increase in the E2-normalized signal in the AP assay (agonist mode) and (ii) no more than 80% reduction in the E2-normalized signal in the AP assay (antagonist mode))
3 | C[C@@H]1Cc2c([nH]c3ccccc23)[C@@H](c2ccc3[nH]c(CN4CC(CC#N)C4)cc3c2)N1CC(C)(C)F [Compound I-98, 2-[1-[[5-[(1R,3R)-2-(2-fluoro-2-methyl-propyl)-3-methyl-1,3,4,9-tetrahydropyrido[3,4-b]indol-1-yl]-1H-indol-2-yl]methyl]azetidin-3-yl]acetonitrile] | ++ (estrogen receptor antagonism having (i) between 10% and 80% increase in the E2-normalized signal in the AP assay (agonist mode) and (ii) between 10% and 80% reduction in the E2-normalized signal in the AP assay (antagonist mode))
4 | C[C@@H]1Cc2c([nH]c3ccccc23)[C@@H](c2n[nH]c3cc(CNCCCF)ccc23)N1CC(C)(C)F [Compound I-14, 3-fluoro-N-[[3-[(1S,3R)-2-(2-fluoro-2-methyl-propyl)-3-methyl-1,3,4,9-tetrahydropyrido[3,4-b]indol-1-yl]-1H-indazol-6-yl]methyl]propan-1-amine] | + (estrogen receptor agonism having (i) at least 80% increase in the E2-normalized signal in the AP assay (agonist mode) and (ii) no more than 80% reduction in the E2-normalized signal in the AP assay (antagonist mode))
5 | C[C@@H]1Cc2c([nH]c3ccccc23)[C@@H](c2n[nH]c3cc(C(=O)O)ccc23)N1CC(C)(C)F [Compound I-4, 3-[(1S,3R)-2-(2-fluoro-2-methyl-propyl)-3-methyl-1,3,4,9-tetrahydropyrido[3,4-b]indol-1-yl]-1H-indazole-6-carboxylic acid] | + (estrogen receptor agonism having (i) at least 80% increase in the E2-normalized signal in the AP assay (agonist mode) and (ii) no more than 80% reduction in the E2-normalized signal in the AP assay (antagonist mode))
6 | C[C@@H]1Cc2c([nH]c3ccccc23)[C@@H](c2ccc3[nH]c(CN4CC5(C4)CC(O)(C(F)F)C5)cc3c2)N1CC(C)(C)F [Compound I-49, 6-(difluoromethyl)-2-[[5-[(1R,3R)-2-(2-fluoro-2-methyl-propyl)-3-methyl-1,3,4,9-tetrahydropyrido[3,4-b]indol-1-yl]-1H-indol-2-yl]methyl]-2-azaspiro[3.3]heptan-6-ol] | + (estrogen receptor agonism having (i) at least 80% increase in the E2-normalized signal in the AP assay (agonist mode) and (ii) no more than 80% reduction in the E2-normalized signal in the AP assay (antagonist mode))
7 | C[C@@H]1Cc2c([nH]c3ccccc23)[C@@H](c2ccc3[nH]c(CN4CC[C@H](F)C4)cc3c2)N1CC(C)(C)F [Compound I-47, (1R,3R)-2-(2-fluoro-2-methyl-propyl)-1-[2-[[(3S)-3-fluoropyrrolidin-1-yl]methyl]-1H-indol-5-yl]-3-methyl-1,3,4,9-tetrahydropyrido[3,4-b]indole] | + (estrogen receptor agonism having (i) at least 80% increase in the E2-normalized signal in the AP assay (agonist mode) and (ii) no more than 80% reduction in the E2-normalized signal in the AP assay (antagonist mode))
8 | C[C@@H]1Cc2c([nH]c3ccccc23)[C@@H](c2cc(F)c3oc(CN4CC(CF)C4)nc3c2)N1CC(F)(F)CO [Compound I-81, 2,2-difluoro-3-[(1R,3R)-1-[7-fluoro-2-[[3-(fluoromethyl)azetidin-1-yl]methyl]-1,3-benzoxazol-5-yl]-3-methyl-1,3,4,9-tetrahydropyrido[3,4-b]indol-2-yl]propan-1-ol] | + (estrogen receptor agonism having (i) at least 80% increase in the E2-normalized signal in the AP assay (agonist mode) and (ii) no more than 80% reduction in the E2-normalized signal in the AP assay (antagonist mode))
9 | C[C@@H]1Cc2c([nH]c3ccccc23)[C@@H](c2ccc3[nH]c(CN4CC(F)(F)C4)cc3c2)N1CC(C)(C)F [Compound I-101, (1R,3R)-1-[2-[(3,3-difluoroazetidin-1-yl)methyl]-1H-indol-5-yl]-2-(2-fluoro-2-methyl-propyl)-3-methyl-1,3,4,9-tetrahydropyrido[3,4-b]indole] | ++ (estrogen receptor antagonism having (i) between 10% and 80% increase in the E2-normalized signal in the AP assay (agonist mode) and (ii) between 10% and 80% reduction in the E2-normalized signal in the AP assay (antagonist mode))
10 | C[C@@H]1Cc2c([nH]c3ccccc23)[C@@H](c2ccn3cc(CN4CC(CF)C4)nc3c2)N1CC(C)(C)F [Compound I-74, (1R,3R)-1-[2-[[3-(fluoromethyl)azetidin-1-yl]methyl]imidazo[1,2-a]pyridin-7-yl]-2-(2-fluoro-2-methyl-propyl)-3-methyl-1,3,4,9-tetrahydropyrido[3,4-b]indole] | +++ (estrogen receptor antagonism (i) with pIC50 greater than 7.5 and at least a 10% reduction in the E2-normalized signal in the AP assay (antagonist mode); and (ii) no more than 10% increase in E2-normalized signal in the AP assay (agonist mode))
11 | CC1CN(Cc2nc3cc([C@@H]4c5[nH]c6ccccc6c5C[C@@H](C)N4CC(C)(C)F)ccc3[nH]2)C1 [Compound I-71, (1R,3R)-2-(2-fluoro-2-methyl-propyl)-3-methyl-1-[2-[(3-methylazetidin-1-yl)methyl]-3H-benzimidazol-5-yl]-1,3,4,9-tetrahydropyrido[3,4-b]indole] | ++ (estrogen receptor antagonism having (i) between 10% and 80% increase in the E2-normalized signal in the AP assay (agonist mode) and (ii) between 10% and 80% reduction in the E2-normalized signal in the AP assay (antagonist mode))
12 | C[C@@H]1Cc2c([nH]c3ccccc23)[C@@H](c2ccc3cc(CN4CC(CF)C4)[nH]c3c2)N1CC(C)(C)F [Compound I-55, (1R,3R)-1-[2-[[3-(fluoromethyl)azetidin-1-yl]methyl]-1H-indol-6-yl]-2-(2-fluoro-2-methyl-propyl)-3-methyl-1,3,4,9-tetrahydropyrido[3,4-b]indole] | + (estrogen receptor agonism having (i) at least 80% increase in the E2-normalized signal in the AP assay (agonist mode) and (ii) no more than 80% reduction in the E2-normalized signal in the AP assay (antagonist mode))
13 | C[C@@H]1Cc2c([nH]c3ccccc23)[C@@H](c2ccc3oc(CN4CCC45CC(F)(F)C5)cc3c2)N1CC(C)(C)F [Compound I-58, (1R,3R)-1-[2-[(6,6-difluoro-1-azaspiro[3.3]heptan-1-yl)methyl]benzofuran-5-yl]-2-(2-fluoro-2-methyl-propyl)-3-methyl-1,3,4,9-tetrahydropyrido[3,4-b]indole] | + (estrogen receptor agonism having (i) at least 80% increase in the E2-normalized signal in the AP assay (agonist mode) and (ii) no more than 80% reduction in the E2-normalized signal in the AP assay (antagonist mode))
14 | C[C@@H]1Cc2c([nH]c3ccccc23)[C@@H](c2cc3ccc(CN4CC(CF)C4)cc3[nH]2)N1CC(C)(C)F [Compound I-56, (1R,3R)-1-[6-[[3-(fluoromethyl)azetidin-1-yl]methyl]-1H-indol-2-yl]-2-(2-fluoro-2-methyl-propyl)-3-methyl-1,3,4,9-tetrahydropyrido[3,4-b]indole] | + (estrogen receptor agonism having (i) at least 80% increase in the E2-normalized signal in the AP assay (agonist mode) and (ii) no more than 80% reduction in the E2-normalized signal in the AP assay (antagonist mode))
